Experimental data: the NIST ThermoML archive (doi:10.1021/acs.jced.5b00181)

Experiments:
[1] = 101 kPa, Liquid; for viscosity: Falling or rolling sphere viscometry; for speed of sound: Frequency=3 MHz, Sing-around technique in a fixed-path interferometer; for mass density: Vibrating tube method
[2] = xn = mol fraction of the nth substance listed; details: 101 kPa, Liquid, x2 = 0; for viscosity: Falling or rolling sphere viscometry; for speed of sound: Frequency=3 MHz, Sing-around technique in a fixed-path interferometer; for mass density: Vibrating tube method

CCCO [propan-1-ol]
[1]
Details	mass density [kg/m3]	speed of sound [m/s]	viscosity [mPa·s]
278.15 K	815.46	1275.5	3.191
298.15 K	799.55	1205.3	1.936
318.15 K	783.18	1137.5	1.242
338.15 K	765.96	1070.8	0.836

CCCO [propan-1-ol] + CCCCCC[n+]1ccn(C)c1.O=S(=O)([N-]S(=O)(=O)C(F)(F)F)C(F)(F)F
[2]
Details	mass density [kg/m3]	speed of sound [m/s]	viscosity [mPa·s]
278.15 K	815.46	1275.5	3.191
298.15 K	799.55	1205.3	1.936
318.15 K	783.18	1137.5	1.242
338.15 K	765.96	1070.8	0.836

CCCO [propan-1-ol] + CCCC[n+]1ccn(C)c1.O=S(=O)([N-]S(=O)(=O)C(F)(F)F)C(F)(F)F
[2]
Details	mass density [kg/m3]	speed of sound [m/s]	viscosity [mPa·s]
278.15 K	815.46	1275.5	3.191
298.15 K	799.55	1205.3	1.936
318.15 K	783.18	1137.5	1.242
338.15 K	765.96	1070.8	0.836

CCCO [propan-1-ol] + CCn1cc[n+](C)c1.O=S(=O)([N-]S(=O)(=O)C(F)(F)F)C(F)(F)F
[2]
Details	mass density [kg/m3]	speed of sound [m/s]	viscosity [mPa·s]
278.15 K	815.46	1275.5	3.191
298.15 K	799.55	1205.3	1.936
318.15 K	783.18	1137.5	1.242
338.15 K	765.96	1070.8	0.836
